Source: PMC4965013, “Open Source Drug Discovery with the Malaria Box Compound Collection for Neglected Diseases and Beyond” (PLoS Pathogens, 2016)
Where two headings read alike, the source gives them in different places. One block for each compound: values may come before it.

What was measured:
PfPMT = PfPMT (Plasmodium falciparum, UniProt Q8IDQ9); assay: PfPMT gene replacement yeast growth; details: 100µM
[1] = system: NCI60 human tumor cell lines; assay: NCI60 5-dose (dose-response) assay; type: cell-based; details: for MGLI50 = Mean Growth Log I50: 5-dose, mean over NCI60 panel
Description: Columns IE-KK. NCI: Misra group (data presented first in this paper). NCI60 anti-tumor cell activity. Methods: […] These 60 cell lines, along with others, have been developed at NCI and have been maintained and distributed for research purposes by NCI for over 25 years. The experimental readout provides both inhibition of cell growth and cell kill. The screen was originally designed to prioritize agents for further evaluation. […] This is the same as for the 5-dose assay, described on http://dtp.cancer.gov/branches/btb/ivclsp.html. […] Testing beyond the initial screen: There were 133 compounds that passed threshold to proceed to 5-dose (dose-response) (data are available for the 133 compounds at the DTP public website (dtp.cancer.gov) by searching either the MMV number or NSC number). After examination of the 5-dose data, 10 compounds were selected for repeat testing based generally on potency, differential cell activity or activity on an individual cell lines or cell line panel. A summary of the data for the 10 compounds of interest is in the table below.

P. falciparum 3D7 = assay: [3H]-hypoxanthine growth inhibition, modified HCO3- or O2; type: cell-based; details: for IC50: Plasmodium falciparum
[2] = system: P. falciparum 3D7 trophozoites; assay: Metabolomic fingerprint profiling LC-MS; type: cell-based, Plasmodium falciparum; parameters: UDP-D-glucose / ADP-D-glucose: unit not given here
P. falciparum = assay: EC50 listed in S2 Table Metabolomics (used to set the concentration tested); type: cell-based; details: Plasmodium falciparum; EC50 used for Factor_XEC50 in metabolomics; read-out: EC50_nM
[3] = metabolite level change after treatment

Sequence of PfPMT (Q8IDQ9 whole entry): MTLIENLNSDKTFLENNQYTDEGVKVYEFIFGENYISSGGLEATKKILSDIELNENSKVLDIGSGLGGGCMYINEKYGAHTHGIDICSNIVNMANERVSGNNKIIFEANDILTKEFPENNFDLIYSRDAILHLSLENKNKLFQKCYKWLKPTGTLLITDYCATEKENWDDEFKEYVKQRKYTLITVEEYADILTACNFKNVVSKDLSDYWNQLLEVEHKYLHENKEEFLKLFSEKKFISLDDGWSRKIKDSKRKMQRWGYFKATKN

Compound: Cc1ccc2c(C)nc(Nc3nc(C)cc(-c4ccccc4)n3)nc2c1 [MMV007041]
candidate inhibitors of PfPMT activity (yeast functional assay) (PfPMT): candidate inhibitors of PfPMT activity

Compound: CCOC(=O)c1cnc2ccc(OC)cc2c1Nc1ccc(N2CCN(C)CC2)cc1 [MMV000704]
candidate inhibitors of PfPMT activity (yeast functional assay) (PfPMT): candidate inhibitors of PfPMT activity

Compound: CCCCCCc1cc2cc(-c3nc4ccccc4[nH]3)c(=Nc3ccccc3C)oc2cc1O [MMV666597]
Notes (NCI60 5-dose activity pattern) [1]: Differential | MGLI50 = Mean Growth Log I50 [1]: -5.57

Compound: O=C(Nc1ccc(-c2nc3cc(NC(=O)c4ccc(Cl)cc4)ccc3[nH]2)cc1)c1ccc(Cl)cc1 [MMV006962]
Notes (NCI60 5-dose activity pattern) [1]: Differential, CNS | MGLI50 = Mean Growth Log I50 [1]: -5.61

Compound: CN1c2ccccc2N(C)C1c1ccc2c(c1)OCO2 [MMV666009]
candidate inhibitors of PfPMT activity (yeast functional assay) (PfPMT): candidate inhibitors of PfPMT activity

Compound: COc1cc(C(=O)ON=C(N)Cc2cccc3ccccc23)cc(OC)c1OC [MMV666687]
candidate inhibitors of PfPMT activity (yeast functional assay) (PfPMT): candidate inhibitors of PfPMT activity

Compound: OC(CNCC1CCCO1)Cn1c2ccc(Cl)cc2c2cc(Cl)ccc21 (stereo not drawn) [MMV396736]
candidate inhibitors of PfPMT activity (yeast functional assay) (PfPMT): candidate inhibitors of PfPMT activity

EC50 (P. falciparum): 448 nM
Compound: COc1ccc(-c2nc(NC(=O)CS(=O)(=O)c3ccc(F)cc3)sc2C)cc1 [MMV665915]
fold change (IC50reduced/IC50normal) (P. falciparum 3D7): 2.4 | IC50 (P. falciparum 3D7; 3D7, read-out: P. falciparum 3D7 IC50 HCO3- (2g/L), standard media): 192 nM | IC50 (P. falciparum 3D7; 3D7, HCO3- reduced media, read-out: P. falciparum 3D7 IC50 HCO3- reduced): 464 nM | Acetyllysine ([2]; S2 Table Metabolomics, metabolite Acetyllysine): -0.1771 | N-acetyl-L-ornithine ([2]; S2 Table Metabolomics, metabolite N-acetyl-L-ornithine): -0.3059 | N-carbamoyl-L-aspartate ([2]; S2 Table Metabolomics, metabolite N-carbamoyl-L-aspartate): 0.053 | NADPH ([2]; S2 Table Metabolomics, metabolite NADPH): 0.1215 | dAMP ([2]; S2 Table Metabolomics, metabolite dAMP): -0.4653 | dCMP ([2]; S2 Table Metabolomics, metabolite dCMP): -0.2866 | dTDP ([2]; S2 Table Metabolomics, metabolite dTDP): 0.07665 | dTMP ([2]; S2 Table Metabolomics, metabolite dTMP): 0.08902 | dTTP ([2]; S2 Table Metabolomics, metabolite dTTP): -0.1721 | dihydroorotate ([2]; S2 Table Metabolomics, metabolite dihydroorotate): -0.4672 | orotate ([2]; S2 Table Metabolomics, metabolite orotate): -0.4189 | DLH ([2]; S2 Table Metabolomics, peptide DLH): 0.071 | DLS/SDL/SID ([2]; S2 Table Metabolomics, peptide DLS/SDL/SID): -0.2498 | PD ([2]; S2 Table Metabolomics, peptide PD): -0.3229 | PEE ([2]; S2 Table Metabolomics, peptide PEE): -0.02112 | PVNF ([2]; S2 Table Metabolomics, peptide PVNF): 0.02436 | 3-phosphoglycerate ([2]; metabolite 3-phosphoglycerate, S2 Table Metabolomics): -0.875 | ADP-D-glucose ([2]; metabolite ADP-D-glucose, S2 Table Metabolomics): -0.2338 | ATP ([2]; metabolite ATP, S2 Table Metabolomics): -0.08026 | CDP ([2]; metabolite CDP, S2 Table Metabolomics, change in metabolite level after compound treatment): 0.2353 | D-sedoheptulose-1/7-phosphate ([2]; metabolite D-sedoheptulose-1/7-phosphate, S2 Table Metabolomics, change in metabolite level after compound treatment): 0.2732 | FAD ([2]; metabolite FAD, S2 Table Metabolomics): -0.2366 | GMP ([2]; metabolite GMP, S2 Table Metabolomics, change in metabolite level after compound treatment): -0.6644 | NAD+ ([2]; metabolite NAD+, S2 Table Metabolomics): -0.2604 | NADP+ ([2]; metabolite NADP+, S2 Table Metabolomics): -0.1454 | Octoluse Bisphosphate ([2]; metabolite Octoluse Bisphosphate, S2 Table Metabolomics, change in metabolite level after compound treatment): -0.3427 | Pyroglutamic acid ([2]; metabolite Pyroglutamic acid, S2 Table Metabolomics): 0.2622 | UDP-D-glucose ([2]; metabolite UDP-D-glucose, S2 Table Metabolomics): -0.2684 | UDP-D-glucuronate ([2]; metabolite UDP-D-glucuronate, S2 Table Metabolomics): -0.1851 | UDP-N-acetyl-glucosamine ([2]; metabolite UDP-N-acetyl-glucosamine, S2 Table Metabolomics): -0.3241 | UDP ([2]; metabolite UDP, S2 Table Metabolomics, change in metabolite level after compound treatment): 0.1227 | UMP ([2]; metabolite UMP, S2 Table Metabolomics, change in metabolite level after compound treatment): -0.7313 | UTP ([2]; metabolite UTP, S2 Table Metabolomics, change in metabolite level after compound treatment): -0.06326 | a-ketoglutarate ([2]; metabolite a-ketoglutarate, S2 Table Metabolomics): -0.1843 | citrate/isocitrate ([2]; metabolite citrate/isocitrate, S2 Table Metabolomics, change in metabolite level after compound treatment): 0.1306 | cytidine ([2]; metabolite cytidine, S2 Table Metabolomics): -0.25 | dATP ([2]; metabolite dATP, S2 Table Metabolomics): -0.1264 | dGMP/AMP ([2]; metabolite dGMP/AMP, S2 Table Metabolomics, change in metabolite level after compound treatment): -0.5258 | fumarate ([2]; metabolite fumarate, S2 Table Metabolomics, change in metabolite level after compound treatment): -0.3392 | glucose-1/6-phosphate ([2]; metabolite glucose-1/6-phosphate, S2 Table Metabolomics, change in metabolite level after compound treatment): -0.6162 | glycerate ([2]; metabolite glycerate, S2 Table Metabolomics, change in metabolite level after compound treatment): -0.5026 | guanine ([2]; metabolite guanine, S2 Table Metabolomics, change in metabolite level after compound treatment): -0.3726 | guanosine ([2]; metabolite guanosine, S2 Table Metabolomics, change in metabolite level after compound treatment): -0.4353 | hypoxanthine ([2]; metabolite hypoxanthine, S2 Table Metabolomics): 0.151 | indole ([2]; metabolite indole, S2 Table Metabolomics): 0.2601 | inosine ([2]; metabolite inosine, S2 Table Metabolomics, change in metabolite level after compound treatment): -0.1084 | 2_3-Diphosphoglyceric acid [2, 3]: -0.3692 | 4-phosphopantothenate [2, 3]: -0.3105 | 6-phospho-D-gluconate [2, 3]: -0.535 | FMN [2, 3]: -0.2195 | IMP [2, 3]: -0.3295 | Pyrophosphate [2, 3]: -0.0001746 | Sedoheptoluse bisphosphate [2, 3]: -0.2854 | cyclic-AMP [2, 3]: -0.3638 | glutathione disulfide [2, 3]: -0.4248 | lactate [2, 3]: -0.1885 | myo-inositol [2, 3]: -0.6665 | nicotinate ([2]; metabolite nicotinate, S2 Table Metabolomics): -0.4616 | ornithine ([2]; metabolite ornithine, S2 Table Metabolomics): -0.3065 | phosphoenolpyruvate ([2]; metabolite phosphoenolpyruvate, S2 Table Metabolomics): -0.5464 | pyruvate ([2]; metabolite pyruvate, S2 Table Metabolomics, change in metabolite level after compound treatment): -0.3441 | ribose-phosphate ([2]; metabolite ribose-phosphate, S2 Table Metabolomics): -0.3706 | sarcosine/alanine ([2]; metabolite sarcosine/alanine, S2 Table Metabolomics, change in metabolite level after compound treatment): -0.5111 | sn-glycerol-3-phosphate ([2]; metabolite sn-glycerol-3-phosphate, S2 Table Metabolomics): -0.2801 | succinate/methylmalonic acid ([2]; metabolite succinate/methylmalonic acid, S2 Table Metabolomics, change in metabolite level after compound treatment): -0.2666 | uridine ([2]; metabolite uridine, S2 Table Metabolomics, change in metabolite level after compound treatment): -0.2088 | xanthosine ([2]; metabolite xanthosine, S2 Table Metabolomics, change in metabolite level after compound treatment): -0.3176

Compound: CCCCCCn1c(=N)n(CC(O)COc2cccc(C)c2)c2ccccc21 (stereo not drawn) [MMV000445]
candidate inhibitors of PfPMT activity (yeast functional assay) (PfPMT): candidate inhibitors of PfPMT activity
